From patent publication US20160120979A1, “METHOD OF APPLYING A COMPOSITION AND PHARMACEUTICAL COMPOSITION WITH A REGIMEN OF ADMINISTERING IT” (priority 2013, published 2016)

Experiments:
[1] = system: Staphylococcus aureus MU500; assay: Experiment 12: replication on antibiotic agar after pulsed 400 nm irradiation; type: cell-based; conditions: 24 hours incubation; for E: Staphylococcus aureus MU500 (no irradiation), replication: antibiotic 10 mg/l in MH agar; for F: Staphylococcus aureus MU500 (irradiation), replication: antibiotic 10 mg/l, 400 nm LED pulses 0.02 ms, 1 kHz, 10 minutes
Method: (§1) 15′000′000 multi-resistant bacteriae (0.050 ml of a McFarland of 1) were put on 40 mm diameter petri dishes. The petri dishes comprised MH agar with or without antibiotic.
The LED power during 0.02 ms was measured to be 0.63 W on a Thorlabs power sensor with a surface area of 2.2×2.2 mm representing a power of 13 mW/cm^2.

Acinetobacter = assay: as above; type: cell-based; conditions: 24 hours incubation; for C: Acinetobacter (no irradiation), replication: antibiotic 10 mg/l in MH agar; for D Acinetobacter (irradiation), replication: antibiotic 10 mg/l, 400 nm LED pulses 0.02 ms, 1 kHz, 10 minutes
Method: as §1
(§2) […]. The LED power during 0.02 ms was measured to be 0.63 W on a Thorlabs power sensor with a surface area of 2.2×2.2 mm representing a power of 13 mW/cm^2.

Pseudomonas aeruginosa = assay: as above; type: cell-based; conditions: 24 hours incubation; for A: Pseudomonas aeruginosa (no irradiation), replication: antibiotic 10 mg/l in MH agar; for B: Pseudomonas aeruginosa (irradiation), replication: antibiotic 10 mg/l, 400 nm LED pulses 0.02 ms, 1 kHz, 10 minutes
Method: as §1, §2

[2] = system: multi-drug resistant MU 50 bacterial cells; assay: Experiment 1: killing of MU50 by antibiotic with/without riboflavin and UVA 365 nm (CFU); type: cell-based, Staphylococcus aureus; conditions: tobramycin 135 μg/ml, incubation 30 min, with UVA 365 nm 9 mW/cm^2 10 min
Method: The first experiment compares the effect of two antibiotics incubated with multi-drug resistant MU 50 bacterial cells accompanied by exposure to UVA light at 365 nm. […] Furthermore, the antibiotics were administered in the presence and absence of riboflavin, to test the free radical effect of riboflavin.
After addition of the antibiotic and optionally riboflavin to the bacterial samples they were incubated for 1 or for 30 minutes in Experiment 1A and for 30 minutes in Experiment 1B prior to the UV-A exposure at 365 nm with 9 mW/cm^2 for 10 minutes.
In Experiment 1B the added antibiotic was tobramycin at a concentration of 135 μg/ml.

| Structure (SMILES) | E: Staphylococcus aureus MU500 (no irradiation), replication [1] | F: Staphylococcus aureus MU500 (irradiation), replication [1] | C: Acinetobacter (no irradiation), replication (Acinetobacter) | D Acinetobacter (irradiation), replication (Acinetobacter) | A: Pseudomonas aeruginosa (no irradiation), replication (Pseudomonas aeruginosa) | B: Pseudomonas aeruginosa (irradiation), replication (Pseudomonas aeruginosa) | CFU first run ([2]; no riboflavin) [CFU] | CFU second run ([2]; no riboflavin) [CFU] | Killed first run ([2]; no riboflavin) [%] | Killed second run ([2]; no riboflavin) [%] | CFU first run ([2]; with riboflavin) [CFU] | CFU second run ([2]; with riboflavin) [CFU] | Killed first run ([2]; with riboflavin) [%] | Killed second run ([2]; with riboflavin) [%] |
| --- | --- | --- | --- | --- | --- | --- | --- | --- | --- | --- | --- | --- | --- | --- |
| CN(C)c1ccc(O)c2c1C[C@H]1C[C@H]3[C@H](N(C)C)C(O)=C(C(N)=O)C(=O)[C@@]3(O)C(O)=C1C2=O [Minocycline] | R (Bacteria can replicate after the treatment) | NR (No replication) | R (Bacteria can replicate after the treatment) | NR (No replication) | R (Bacteria can replicate after the treatment) | NR (No replication) | – | – | – | – | – | – | – | – |
| CN(C)[C@@H]1C(O)=C(C(=O)NCNCCCC[C@H](N)C(=O)O)C(=O)[C@@]2(O)C(O)=C3C(=O)c4c(O)cccc4[C@@](C)(O)[C@H]3C[C@@H]12 [Lymecycline] | R (Bacteria can replicate after the treatment) | NR (No replication) | R (Bacteria can replicate after the treatment) | NR (No replication) | R (Bacteria can replicate after the treatment) | NR (No replication) | – | – | – | – | – | – | – | – |
| CN(C)c1cc(NC(=O)CNC(C)(C)C)c(O)c2c1C[C@H]1C[C@H]3[C@H](N(C)C)C(O)=C(C(N)=O)C(=O)[C@@]3(O)C(O)=C1C2=O [Tigecycline] | R (Bacteria can replicate after the treatment) | NR (No replication) | R (Bacteria can replicate after the treatment) | NR (No replication) | R (Bacteria can replicate after the treatment) | NR (No replication) | – | – | – | – | – | – | – | – |
| COc1c(N2CCNC(C)C2)c(F)cc2c(=O)c(C(=O)O)cn(C3CC3)c12 (centres unmarked) [Gatifloxacin] | R (Bacteria can replicate after the treatment) | PR (Bacteria can replicate partially) | R (Bacteria can replicate after the treatment) | NR (No replication) | R (Bacteria can replicate after the treatment) | NR (No replication) | – | – | – | – | – | – | – | – |
| NC[C@H]1O[C@H](O[C@H]2[C@H](O)[C@@H](O[C@H]3O[C@H](CO)[C@@H](O)[C@H](N)[C@H]3O)[C@H](N)C[C@@H]2N)[C@H](N)C[C@@H]1O [Tobramycin] | R (Bacteria can replicate after the treatment) | R (Bacteria can replicate after the treatment) | R (Bacteria can replicate after the treatment) | R (Bacteria can replicate after the treatment) | R (Bacteria can replicate after the treatment) | NR (No replication) | 416 | 481 | 36 | 25 | 144 | 159 | 78 | 75 |
| CN(C)[C@@H]1C(O)=C(C(N)=O)C(=O)[C@@]2(O)C(O)=C3C(=O)c4c(O)cccc4[C@@](C)(O)[C@H]3[C@H](O)[C@@H]12 [Oxytetracycline] | R (Bacteria can replicate after the treatment) | NR (No replication) | R (Bacteria can replicate after the treatment) | NR (No replication) | R (Bacteria can replicate after the treatment) | NR (No replication) | – | – | – | – | – | – | – | – |
| C[C@H]1COc2c(N3CCN(C)CC3)c(F)cc3c(=O)c(C(=O)O)cn1c23 [Levofloxacin] | R (Bacteria can replicate after the treatment) | PR (Bacteria can replicate partially) | R (Bacteria can replicate after the treatment) | NR (No replication) | R (Bacteria can replicate after the treatment) | NR (No replication) | – | – | – | – | – | – | – | – |
